Results as given in patent publication US20260258064A1 (SIRONAX LTD., priority 2023, published 2026).

The compounds below were run against T1, SARM1 (50-724) (Homo sapiens, UniProt Q6SZW1) (assay: SARM1 (50-724) enzymatic assay (LC-MS/MS)). Conditions: Purified SARM1 (50-724) 2 nM, NMN as activator, NAD+ as substrate, 1 h at room temperature, read-out: IC50 (SARM1 inhibitory activity).
T1 construct: Purified SARM1 (50-724) with a final concentration of 2 nM was pre-incubated with a test compound
T1 sequence (Q6SZW1 50-724): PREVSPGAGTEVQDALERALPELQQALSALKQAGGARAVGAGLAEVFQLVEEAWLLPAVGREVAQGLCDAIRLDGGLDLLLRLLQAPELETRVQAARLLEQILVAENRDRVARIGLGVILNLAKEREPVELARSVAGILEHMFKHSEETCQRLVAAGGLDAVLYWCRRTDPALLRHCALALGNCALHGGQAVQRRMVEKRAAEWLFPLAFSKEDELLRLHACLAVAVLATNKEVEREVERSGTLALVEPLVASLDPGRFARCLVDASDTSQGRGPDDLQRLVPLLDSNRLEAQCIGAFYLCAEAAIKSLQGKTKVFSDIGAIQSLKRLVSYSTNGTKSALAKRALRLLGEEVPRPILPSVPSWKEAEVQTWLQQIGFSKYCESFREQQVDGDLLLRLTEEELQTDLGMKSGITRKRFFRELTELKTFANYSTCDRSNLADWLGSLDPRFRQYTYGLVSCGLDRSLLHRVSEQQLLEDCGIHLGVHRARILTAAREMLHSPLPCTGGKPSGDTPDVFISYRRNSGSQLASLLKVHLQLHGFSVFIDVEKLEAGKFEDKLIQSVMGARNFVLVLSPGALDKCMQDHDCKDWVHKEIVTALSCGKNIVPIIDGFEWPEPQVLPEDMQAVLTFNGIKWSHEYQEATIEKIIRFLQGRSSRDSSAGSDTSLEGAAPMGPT
Assay type: biochemical
Method in brief: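 Reaction buffer was Dulbecco's PBS. Compound and 2 nM human SARM1 (50-724) were pre-incubated 15 min at room temperature, then […] NAD^+ and 200 µM NMN activator were added for 1 h at room temperature. Acetonitrile (70%) stop, LC-MS/MS read-out, IC50 values.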
Work on `O=S1(=O)Cc2ccc3[nH]c(-c4nncn4-c4cccc(F)c4Cl)nc3c2C1` [Compound 198, 2-(4-(2-chloro-3-fluorophenyl)-4H-1,2,4-triazol-3-yl)-6,8-dihydro-3H-thieno[3',4':3,4]benzo[1,2-d]imidazole 7,7-dioxide] yielded an IC50 greater than 1000 nM.
Compound `NC(=O)Cn1cc(-c2cccc(F)c2Cl)c(-c2nc3cc(C(F)(F)F)ccc3[nH]2)cc1=O` [Compound 199, 2-(5-(2-chloro-3-fluorophenyl)-2-oxo-4-(5-(trifluoromethyl)-1H-benzo[d]imidazol-2-yl)pyridin-1(2H)-yl)acetamide] has an IC50 of no more than 100 nM.
`Fc1cc(C(F)(F)F)cc2nc(-c3nncn3-c3cc(C(F)F)ccc3Cl)[nH]c12` [Compound 200, 2-(4-(2-chloro-5-(difluoromethyl)phenyl)-4H-1,2,4-triazol-3-yl)-7-fluoro-5-(trifluoromethyl)-1H-benzo[d]imidazole] gave an IC50 of no more than 100 nM.
Work on `O=S1(=O)CCN(c2ccc(Cl)c(-n3cnnc3-c3nc4cc(C(F)(F)F)ccc4[nH]3)n2)CC1` [Compound 201, 4-(5-chloro-6-(3-(5-(trifluoromethyl)-1H-benzo[d]imidazol-2-yl)-4H-1,2,4-triazol-4-yl)pyridin-2-yl)thiomorpholine 1,1-dioxide] yielded an IC50 of no more than 100 nM.
`CN1CCC(n2cnnc2-c2nc3cc(C(F)(F)F)ccc3[nH]2)C1` (centres unmarked) [Compound 202, 2-(4-(1-methylpyrrolidin-3-yl)-4H-1,2,4-triazol-3-yl)-5-(trifluoromethyl)-1H-benzo[d]imidazole] was tested, and the IC50 was greater than 1000 nM.
In the case of `CS(=O)(=O)Cc1nnc(-c2nc3cc(C4(F)CC4)cc(F)c3[nH]2)n1-c1cccc(F)c1Cl` [Compound 203, 2-(4-(2-chloro-3-fluorophenyl)-5-((methylsulfonyl)methyl)-4H-1,2,4-triazol-3-yl)-7-fluoro-5-(1-fluorocyclopropyl)-1H-benzo[d]imidazole], the IC50 is reported as no more than 100 nM.
`CC(C#N)(CO)c1ccc2[nH]c(-c3nncn3-c3cccc(F)c3Cl)nc2c1` (centres unmarked) [Compound 204, 2-(2-(4-(2-chloro-3-fluorophenyl)-4H-1,2,4-triazol-3-yl)-1H-benzo[d]imidazol-5-yl)-3-hydroxy-2-methylpropanenitrile] showed an IC50 of no more than 100 nM.
`CNC(=O)c1cc(F)c(Cl)c(-n2cnnc2-c2nc3cc(C(F)(F)F)cc(F)c3[nH]2)c1` [Compound 205, 4-chloro-3-fluoro-5-(3-(7-fluoro-5-(trifluoromethyl)-1H-benzo[d]imidazol-2-yl)-4H-1,2,4-triazol-4-yl)-N-methylbenzamide] was tested, and the IC50 was no more than 100 nM.
Work on `Oc1cc(F)c(Cl)c(-n2cnnc2-c2nc3cc(C(F)(F)F)cc(F)c3[nH]2)c1` [Compound 206, 4-chloro-3-fluoro-5-(3-(7-fluoro-5-(trifluoromethyl)-1H-benzo[d]imidazol-2-yl)-4H-1,2,4-triazol-4-yl)phenol] yielded an IC50 of no more than 100 nM.
`Oc1cc(F)c(Cl)c(-n2cnnc2-c2nc3cc(C(F)(F)F)ccc3[nH]2)c1` [Compound 207, 4-chloro-3-fluoro-5-(3-(5-(trifluoromethyl)-1H-benzo[d]imidazol-2-yl)-4H-1,2,4-triazol-4-yl)phenol] gave an IC50 of no more than 100 nM.
`CN1CCN(c2ccc(Cl)c(-n3cnnc3-c3nc4cc(C(F)(F)F)ccc4[nH]3)n2)CC1=O` [Compound 208, 4-(5-chloro-6-(3-(5-(trifluoromethyl)-1H-benzo[d]imidazol-2-yl)-4H-1,2,4-triazol-4-yl)pyridin-2-yl)-1-methylpiperazin-2-one] was tested, and the IC50 was no more than 100 nM.
`FC(F)(F)c1ccc2[nH]c(-c3nncn3-c3c(Cl)ccc4[nH]ncc34)nc2c1` [Compound 209, 5-chloro-4-(3-(5-(trifluoromethyl)-1H-benzo[d]imidazol-2-yl)-4H-1,2,4-triazol-4-yl)-1H-indazole] was tested, and the IC50 was no more than 100 nM.
`COc1cc(-n2cnnc2-c2nc3cc(C(F)(F)F)ccc3[nH]2)c(OC(F)(F)F)cn1` [Compound 210, 2-(4-(2-methoxy-5-(trifluoromethoxy)pyridin-4-yl)-4H-1,2,4-triazol-3-yl)-5-(trifluoromethyl)-1H-benzo[d]imidazole] gave an IC50 of no more than 100 nM.
Compound `NC(=O)c1cc(-n2cnnc2-c2nc3cc(C(F)(F)F)ccc3[nH]2)c(Cl)cn1` [Compound 211, 5-chloro-4-(3-(5-(trifluoromethyl)-1H-benzo[d]imidazol-2-yl)-4H-1,2,4-triazol-4-yl)picolinamide] has an IC50 of no more than 100 nM.
`Fc1ccc(OC(F)(F)F)c(-n2cnnc2-c2nc3cc(C(F)(F)F)cc(F)c3[nH]2)c1` [Compound 213, 7-fluoro-2-(4-(5-fluoro-2-(trifluoromethoxy)phenyl)-4H-1,2,4-triazol-3-yl)-5-(trifluoromethyl)-1H-benzo[d]imidazole] was tested, and the IC50 was no more than 100 nM.
Compound `FC(F)C12CC(n3cnnc3-c3nc4cc(C(F)(F)F)ccc4[nH]3)(C1)C2` [Compound 214, 2-(4-(3-(difluoromethyl)bicyclo[1.1.1]pentan-1-yl)-4H-1,2,4-triazol-3-yl)-5-(trifluoromethyl)-1H-benzo[d]imidazole] has an IC50 greater than 1000 nM.
`FC(F)(Cl)Oc1cnccc1-n1cnnc1-c1nc2cc(C(F)(F)F)ccc2[nH]1` [Compound 215, 2-(4-(3-(chlorodifluoromethoxy)pyridin-4-yl)-4H-1,2,4-triazol-3-yl)-5-(trifluoromethyl)-1H-benzo[d]imidazole] gave an IC50 of no more than 100 nM.
`NC(=O)c1nc(Cl)c(-n2cnnc2-c2nc3cc(C(F)(F)F)cc(F)c3[nH]2)s1` [Compound 216, 4-chloro-5-(3-(7-fluoro-5-(trifluoromethyl)-1H-benzo[d]imidazol-2-yl)-4H-1,2,4-triazol-4-yl)thiazole-2-carboxamide] showed an IC50 of 100 to 500 nM.
Compound `CS(=O)(=O)c1ccc(OC(F)(F)F)c(-n2cnnc2-c2nc3cc(C(F)(F)F)cc(F)c3[nH]2)c1` [Compound 217, 7-fluoro-2-(4-(5-(methylsulfonyl)-2-(trifluoromethoxy)phenyl)-4H-1,2,4-triazol-3-yl)-5-(trifluoromethyl)-1H-benzo[d]imidazole] has an IC50 of no more than 100 nM.
`Fc1cc(C(F)(F)F)cc2nc(-c3nncn3-c3cc(Cl)ncc3OC(F)(F)F)[nH]c12` [Compound 218, 2-(4-(2-chloro-5-(trifluoromethoxy)pyridin-4-yl)-4H-1,2,4-triazol-3-yl)-7-fluoro-5-(trifluoromethyl)-1H-benzo[d]imidazole] showed an IC50 of no more than 100 nM.
For `CC(C)(C)Oc1cnccc1-n1cnnc1-c1nc2cc(C(F)(F)F)ccc2[nH]1` [Compound 219, 2-(4-(3-(tert-butoxy)pyridin-4-yl)-4H-1,2,4-triazol-3-yl)-5-(trifluoromethyl)-1H-benzo[d]imidazole], the IC50 was 100 to 500 nM.
`FC(F)(F)c1ccc2[nH]c(-c3nncn3-c3cnncc3C3CC3)nc2c1` [Compound 220, 2-(4-(5-cyclopropylpyridazin-4-yl)-4H-1,2,4-triazol-3-yl)-5-(trifluoromethyl)-1H-benzo[d]imidazole] gave an IC50 of 100 to 500 nM.
`FC(F)(F)Oc1cnc(C2CC2)cc1-n1cnnc1-c1nc2cc(C(F)(F)F)ccc2[nH]1` [Compound 221, 2-(4-(2-cyclopropyl-5-(trifluoromethoxy)pyridin-4-yl)-4H-1,2,4-triazol-3-yl)-5-(trifluoromethyl)-1H-benzo[d]imidazole] showed an IC50 of no more than 100 nM.
In the case of `Cn1cc(OC(F)(F)F)c(-n2cnnc2-c2nc3cc(C(F)(F)F)cc(F)c3[nH]2)cc1=O` [Compound 222, 4-(3-(7-fluoro-5-(trifluoromethyl)-1H-benzo[d]imidazol-2-yl)-4H-1,2,4-triazol-4-yl)-1-methyl-5-(trifluoromethoxy)pyridin-2(1H)-one], the IC50 is reported as no more than 100 nM.
In the case of `FC(F)(F)Oc1cnccc1-n1cnnc1-c1nc2cc(C34CC(C3)C4)ccc2[nH]1` [Compound 223, 5-(bicyclo[1.1.1]pentan-1-yl)-2-(4-(3-(trifluoromethoxy)pyridin-4-yl)-4H-1,2,4-triazol-3-yl)-1H-benzo[d]imidazole], the IC50 is reported as no more than 100 nM.
Work on `CC1(c2ccc3[nH]c(-c4nncn4-c4ccncc4OC(F)(F)F)nc3c2)CC1` [Compound 224, 5-(1-methylcyclopropyl)-2-(4-(3-(trifluoromethoxy)pyridin-4-yl)-4H-1,2,4-triazol-3-yl)-1H-benzo[d]imidazole] yielded an IC50 of no more than 100 nM.
Compound `FC(F)(F)c1ccc2[nH]c(-c3nncn3-c3cnccc3C(F)(F)F)nc2c1` [Compound 225, 5-(Trifluoromethyl)-2-(4-(4-(trifluoromethyl)pyridin-3-yl)-4H-1,2,4-triazol-3-yl)-1H-benzo[d]imidazole] has an IC50 of no more than 100 nM.
`C#Cc1cc(-n2cnnc2-c2nc3cc(C(F)(F)F)ccc3[nH]2)c(OC(F)(F)F)cn1` [Compound 226, 2-(4-(2-ethynyl-5-(trifluoromethoxy)pyridin-4-yl)-4H-1,2,4-triazol-3-yl)-5-(trifluoromethyl)-1H-benzo[d]imidazole] was tested, and the IC50 was no more than 100 nM.
Work on `FC(F)(F)Oc1cnccc1-n1cnnc1-c1nc2cc(C(F)(F)F)cc(Cl)c2[nH]1` [Compound 227, 7-chloro-2-(4-(3-(trifluoromethoxy)pyridin-4-yl)-4H-1,2,4-triazol-3-yl)-5-(trifluoromethyl)-1H-benzo[d]imidazole] yielded an IC50 of no more than 100 nM.
